Experimental data: ChEMBL document CHEMBL1137781, “Synthesis and preclinical evaluation of novel PET probes for P-glycoprotein function and expression” (J Med Chem, 2009)

Experiments:
[1] = tested on: NCI/ADR-RES; test: Inhibition of Pgp in human MCF7/ADR cells assessed as potentiation of doxorubicin-induced cytotoxicity at 20 uM relative to untreated control; format: cell-based; set-up: Activity: scale not given: the % may be the effect or the level left
[2] = tested on: NCI/ADR-RES; test: Inhibition of Pgp in human MCF7/ADR cells assessed as increase in doxorubicin accumulation at 20 uM relative to untreated control; format: cell-based
[3] = tested on: Caco-2; test: Ratio of permeability from basolateral to apical side over apical to basolateral side in human Caco-2 cells; format: ADME, cell-based

Structure (SMILES) | Activity [1] [%] | fold change (FC) [2] | Ratio [3] | fold change (FC) [1]
COc1cc2c(cc1OC)CN(CCCC1CCCc3c(OC)cccc31)CC2 (stereo unspecified) | 85 | 4.8 | 18 | –
COc1cc2c(cc1OC)CN(CC/C=C1\CCCc3c(OC)cccc31)CC2 | – | 5.7 | 1.6 | 95
